In patent US20210254272A1, “TEXTILES HAVING ANTIMICROBIAL PROPERTIES” (Livinguard AG, priority 2015, published 2021):

Assay: Leaching test: 100 g fabric soaked in 10 liters stagnant distilled water, 3 days (72 hours)
Type: physicochemical
Conditions: for Leaching of active ingredients / Leaching Test-Leaching of active ingredients: pad process; for Leaching of active ingredients: cured 180° C. 2 min; for Leaching Test-Leaching of active ingredients: 2 min
Method: The test procedure for leaching was as follows: 100 g (grams) of fabric as well as control fabrics were soaked in 10 liters of stagnant distilled water in a closed wide mouth jar. After 3 days (72 hours), the water samples were tested for leached substances as per standard analytical methods.
The test procedure for leaching was as follows: 100 g (grams) of fabric as well as control fabrics were soaked in 10 liters of stagnant distilled water in a closed wide mouth jar. After 3 days (72 hours), the water samples were tested for leached substances as per standard analytical methods. A weight of 100 g fabric was chosen because in the preferred embodiment of the water filter as described further below, each filter comprises a strip of fabric with 210 g/m^2, 3 meters long and 0.16 meters wide, which corresponds to 100 g of fabric.

## Silver
Exhaust 80° C., 60 min, dosage 1% o.w.f (test up to 5% o.w.f)
  Leaching of active ingredients (in ppm): 3.5 ppm
Exhaust 80° C., 60 min, dosage 2% o.w.f
  Leaching of active ingredients (in ppm): 19 ppm
Exhaust 80° C., 60 min, dosage 3% o.w.f
  Leaching of active ingredients (in ppm): 36 ppm
Exhaust 80° C., 60 min, dosage 4% o.w.f
  Leaching of active ingredients (in ppm): 41 ppm
Exhaust 80° C., 60 min, dosage 5% o.w.f
  Leaching of active ingredients (in ppm): 69 ppm
Exhaust 80 ° C., solution dosage 1% o.w.f, process time 10 min
  Leaching of active ingredients (in ppm): 50 ppm
Exhaust 80 ° C., solution dosage 1% o.w.f, process time 20 min
  Leaching of active ingredients (in ppm): 37 ppm
Exhaust 80 ° C., solution dosage 1% o.w.f, process time 30 min
  Leaching of active ingredients (in ppm): 28 ppm
Exhaust 80 ° C., solution dosage 1% o.w.f, process time 40 min
  Leaching of active ingredients (in ppm): 22 ppm
Exhaust 80 ° C., solution dosage 1% o.w.f, process time 50 min
  Leaching of active ingredients (in ppm): 19 ppm
Exhaust 80 ° C., solution dosage 1% o.w.f, process time 55 min
  Leaching of active ingredients (in ppm): 8 ppm
Exhaust 80 ° C., solution dosage 1% o.w.f, process time 60 min
  Leaching of active ingredients (in ppm): 4 ppm
Exhaust 80 ° C., solution dosage 1% o.w.f, process time 70 min
  Leaching of active ingredients (in ppm): 4 ppm
Exhaust 80 ° C., solution dosage 1% o.w.f, process time 80 min
  Leaching of active ingredients (in ppm): 3 ppm
Exhaust 80 ° C., solution dosage 1% o.w.f, process time 90 min
  Leaching of active ingredients (in ppm): 8 ppm
From Experimental examples I.1 and I.4
  limit on the quantity of the agent that can be adhered to the textile in a non-leaching or substantially non-leaching manner: about 0.01 % o.w.f.
Mixture 1 gm/lit each
  Leaching of active ingredients: 12 ppm
Mixture 1 gm/lit each, after Washing
  Leaching of active ingredients: 0.4 ppm
Mixture 5 gm/lit each
  Leaching of active ingredients: 28 ppm
Mixture 5 gm/lit each, after Washing
  Leaching of active ingredients: 0.6 ppm
Mixture 10 gm/lit each
  Leaching of active ingredients: 38 ppm
Mixture 10 gm/lit each, after Washing
  Leaching of active ingredients: 1.0 ppm
Single agent 5 gm/lit, curing 120° C.
  Leaching Test-Leaching of active ingredients: 9 ppm
Single agent 5 gm/lit, curing 140° C.
  Leaching Test-Leaching of active ingredients: 5 ppm
Single agent 5 gm/lit, curing 150° C.
  Leaching Test-Leaching of active ingredients: 3 ppm
Single agent 5 gm/lit, curing 160° C.
  Leaching Test-Leaching of active ingredients: 2 ppm
Single agent 5 gm/lit, curing 180° C.
  Leaching Test-Leaching of active ingredients: 1 ppm
Single agent 10 gm/lit, curing 120° C.
  Leaching Test-Leaching of active ingredients: 16 ppm
Single agent 10 gm/lit, curing 140° C.
  Leaching Test-Leaching of active ingredients: 15 ppm
Single agent 10 gm/lit, curing 150° C.
  Leaching Test-Leaching of active ingredients: 12 ppm
Single agent 10 gm/lit, curing 160° C.
  Leaching Test-Leaching of active ingredients: 9 ppm
Single agent 10 gm/lit, curing 180° C.
  Leaching Test-Leaching of active ingredients: 2 ppm
Solution dosage 0.10% o.w.f, exhaust temperature 40° C., process time 60 min
  Leaching of active ingredient (in ppm): 0 ppm
Solution dosage 0.10% o.w.f, exhaust temperature 60° C., process time 60 min
  Leaching of active ingredient (in ppm): 0 ppm
Solution dosage 0.10% o.w.f, exhaust temperature 65° C., process time 60 min
  Leaching of active ingredient (in ppm): 0 ppm
Solution dosage 0.10% o.w.f, exhaust temperature 70° C., process time 60 min
  Leaching of active ingredient (in ppm): 0 ppm
Solution dosage 0.10% o.w.f, exhaust temperature 75° C., process time 60 min
  Leaching of active ingredient (in ppm): 0 ppm
Solution dosage 0.10% o.w.f, exhaust temperature 80° C., process time 60 min
  Leaching of active ingredient (in ppm): 0 ppm
Solution dosage 0.10% o.w.f, exhaust temperature 85° C., process time 60 min
  Leaching of active ingredient (in ppm): 2 ppm
Solution dosage 0.10% o.w.f, exhaust temperature 90° C., process time 60 min
  Leaching of active ingredient (in ppm): 2 ppm
Solution dosage 0.10% o.w.f, exhaust temperature 95° C., process time 60 min
  Leaching of active ingredient (in ppm): 2 ppm
Solution dosage 0.20% o.w.f, exhaust temperature 40° C., process time 60 min
  Leaching of active ingredient (in ppm): 0 ppm
Solution dosage 0.20% o.w.f, exhaust temperature 60° C., process time 60 min
  Leaching of active ingredient (in ppm): 0 ppm
Solution dosage 0.20% o.w.f, exhaust temperature 65° C., process time 60 min
  Leaching of active ingredient (in ppm): 0 ppm
Solution dosage 0.20% o.w.f, exhaust temperature 70° C., process time 60 min
  Leaching of active ingredient (in ppm): 0 ppm
Solution dosage 0.20% o.w.f, exhaust temperature 75° C., process time 60 min
  Leaching of active ingredient (in ppm): 0 ppm
Solution dosage 0.20% o.w.f, exhaust temperature 80° C., process time 60 min
  Leaching of active ingredient (in ppm): 0 ppm
Solution dosage 0.20% o.w.f, exhaust temperature 85° C., process time 60 min
  Leaching of active ingredient (in ppm): 4 ppm
Solution dosage 0.20% o.w.f, exhaust temperature 90° C., process time 60 min
  Leaching of active ingredient (in ppm): 4 ppm
Solution dosage 0.20% o.w.f, exhaust temperature 95° C., process time 60 min
  Leaching of active ingredient (in ppm): 4 ppm
Solution dosage 0.50% o.w.f, exhaust temperature 40° C., process time 60 min
  Leaching of active ingredient (in ppm): 0 ppm
Solution dosage 0.50% o.w.f, exhaust temperature 60° C., process time 60 min
  Leaching of active ingredient (in ppm): 3 ppm
Solution dosage 0.50% o.w.f, exhaust temperature 65° C., process time 60 min
  Leaching of active ingredient (in ppm): 2 ppm
Solution dosage 0.50% o.w.f, exhaust temperature 70° C., process time 60 min
  Leaching of active ingredient (in ppm): 1 ppm
Solution dosage 0.50% o.w.f, exhaust temperature 75° C., process time 60 min
  Leaching of active ingredient (in ppm): 1 ppm
Solution dosage 0.50% o.w.f, exhaust temperature 80° C., process time 60 min
  Leaching of active ingredient (in ppm): 1 ppm
Solution dosage 0.50% o.w.f, exhaust temperature 85° C., process time 60 min
  Leaching of active ingredient (in ppm): 5 ppm
Solution dosage 0.50% o.w.f, exhaust temperature 90° C., process time 60 min
  Leaching of active ingredient (in ppm): 7 ppm
Solution dosage 0.50% o.w.f, exhaust temperature 95° C., process time 60 min
  Leaching of active ingredient (in ppm): 8 ppm
Solution dosage 0.80% o.w.f, exhaust temperature 40° C., process time 60 min
  Leaching of active ingredient (in ppm): 0 ppm
Solution dosage 0.80% o.w.f, exhaust temperature 60° C., process time 60 min
  Leaching of active ingredient (in ppm): 4 ppm
Solution dosage 0.80% o.w.f, exhaust temperature 65° C., process time 60 min
  Leaching of active ingredient (in ppm): 3 ppm
Solution dosage 0.80% o.w.f, exhaust temperature 70° C., process time 60 min
  Leaching of active ingredient (in ppm): 2 ppm
Solution dosage 0.80% o.w.f, exhaust temperature 75° C., process time 60 min
  Leaching of active ingredient (in ppm): 3 ppm
Solution dosage 0.80% o.w.f, exhaust temperature 80° C., process time 60 min
  Leaching of active ingredient (in ppm): 1 ppm
Solution dosage 0.80% o.w.f, exhaust temperature 85° C., process time 60 min
  Leaching of active ingredient (in ppm): 7 ppm
Solution dosage 0.80% o.w.f, exhaust temperature 90° C., process time 60 min
  Leaching of active ingredient (in ppm): 7 ppm
Solution dosage 0.80% o.w.f, exhaust temperature 95° C., process time 60 min
  Leaching of active ingredient (in ppm): 8 ppm
Solution dosage 1.00% o.w.f, exhaust temperature 40° C., process time 60 min
  Leaching of active ingredient (in ppm): 0 ppm
Solution dosage 1.00% o.w.f, exhaust temperature 60° C., process time 60 min
  Leaching of active ingredient (in ppm): 7 ppm
Solution dosage 1.00% o.w.f, exhaust temperature 65° C., process time 60 min
  Leaching of active ingredient (in ppm): 7 ppm
Solution dosage 1.00% o.w.f, exhaust temperature 70° C., process time 60 min
  Leaching of active ingredient (in ppm): 3 ppm
Solution dosage 1.00% o.w.f, exhaust temperature 75° C., process time 60 min
  Leaching of active ingredient (in ppm): 4 ppm
Solution dosage 1.00% o.w.f, exhaust temperature 80° C., process time 60 min
  Leaching of active ingredient (in ppm): 1 ppm
Solution dosage 1.00% o.w.f, exhaust temperature 85° C., process time 60 min
  Leaching of active ingredient (in ppm): 8 ppm
Solution dosage 1.00% o.w.f, exhaust temperature 90° C., process time 60 min
  Leaching of active ingredient (in ppm): 9 ppm
Solution dosage 1.00% o.w.f, exhaust temperature 95° C., process time 60 min
  Leaching of active ingredient (in ppm): 10 ppm
